Experimental data as given in patent US8367620B2, “Peptidic growth hormone secretagogues analog compounds and preparations thereof” (Centro de Ingenieria Genetica y Biotecnologia, priority 2006, dated 2013).
pIC50: −log10 of the molar value. Where two headings read alike, the source gives them in different places. Where no end group is shown, it is not given here.

How the values were obtained:
IGF-I mRNA = IGF-I mRNA in liver and GH level of intraperitoneally injected tilapias; type: in vivo, tilapia; settings: liver of intraperitoneally injected tilapias
Procedure: IGF-I mRNa was determined in the liver of intraperitoneally injected tilapias monitoring also the GH level time course, showing the peptidic GHS analog compounds as able to stimulate in fish the GH levels in the bloodstream and at incrementing the IGF-I mRNA levels after the injection of the compounds as shown in table 4.

PC12 cells = type: cell-based
Procedure: PC12 cells were stored in 75 cm^2 culture flasks on DMEM containing 5% bovine foetal serum and 10% horse serum, with 50 μg/ml gentamicin. Cells were incubated at 37° C. in 5% CO2. To induce differentiation cells were transferred at a density of 1×10^4 to polylysine covered 96 well plates in NGF supplemented DMEM media for 7 days, with medium replacement every 2-3 days. After differentiation cells were incubated with peptidic GHS analog compounds, at different concentrations for 72 h. Cell survival and proliferation was determined using the Promega non-radioactive cytotoxicity proliferation assay, Cell Titer 96, based in the conversion of 3-(4,5-dimethylthiazole-2-yl)-2,5-diphenyltetrazolium bromide (MTT) in to a spectrophotometrically detectable product. After deprivation of NGF medium is removed and 15 μl of the DMEM dissolved dye is added, after 4 hours of 37° C. incubation 100 μl of the stopping solution is added and absorbance is measured at 570 nm

lysozyme = experiment: Lysozyme levels in tilapia larvae treated by immersion; type: in vivo, Oreochromis sp.; settings: immersion 100 μg/L
Procedure: (§1) Growth stimulation experiments on tilapia Oreochromis sp. larvae were performed evaluating groups of 100 larvae with 0.01 g average, using the peptidic GHS analogs, in a 100 μg/L concentration, twice a week using an immersion time of one hour.
During this experiment lysozyme levels were also monitored and an increase of this immunity marker was obtained in the treated animals as shown in table 8.

[1] = system: tilapia Oreochromis sp. larvae; experiment: Growth stimulation of tilapia larvae by immersion; type: in vivo; settings: immersion 100 μg/L, one hour twice a week, three weeks
Procedure: as §1

[2] = system: primary cultures of granular cerebellum cells; type: cell-based, Wistar rats
Procedure: Primary cultures of granular cerebellum cells were obtained from 7-9 days Wistar rats. After a rapid dissection, rat cerebellums were submerged in a cold solution and meningeal membranes were removed, each organ was transferred to a 2-3 ml fresh medium solution and finely sliced. Cells were dissociated using a Pasteur pipette and filtered through a nylon […] membrane (Falcon, Franklin Lakes, N.J.). The number of viable cells was determined by cell counting in a hematocytometer with tripan blue as a marker. Cells were cultured on polylysine covered 96 well plates at a density of 6250 cells in […] final volume. Cultures were kept at 37° C. in 5%. CO2 after 24 h, 10 μM of cytosine arabinofuranose (AraC; Sigma) was added to inhibit the proliferation of non-neuronal cells. The capacity of neural damage prevention was tested adding 500 μM hydrogen peroxide in different concentrations of peptidic GHS analog compounds, Cell survival was determined using the Promega non-radioactive cytotoxicity proliferation assay, Cell Titer 96 (Promega).

[3] = system: Post-larvae of Litopenaeus vanamei; experiment: Growth stimulation in shrimps by dietary supplementation; type: in vivo; settings: compound at 1% in post-larvae crustacean diet
Procedure: The peptidic GHS analogs were included at 1% in a post-larvae crustacean diet. Post-larvae of Litopenaeus vanamei were fed with the aforementioned diet in parallel with a control group with 1% BSA addition. The effect was measured with an optical micrometer and weighing the animals in a 0.1 mg precision scale.

tilapias = experiment: Growth acceleration on juvenile tilapias treated intraperitoneally; type: in vivo; settings: juvenile tilapia, ip 0.1 μg/g twice a week, three weeks
Procedure: The compounds were dissolved in a sodium phosphate (PBS) buffer solution and injected twice a week, during three weeks at 0.1 μg/g of humid fish weight (gbw). Compounds were applied individually to a group of 10 male tilapias with an average weight of 60.41±10.36 g and a control group with an average weight of 60.58±19.67 g was receiving PBS only as a control, measuring the average weight every week, all animals in the experiment were labelled with microchips (Stoelting Co. Wood Dale, USA.). for proper identification.

Litopenaeus vanamei = experiment: Growing of shrimp larvae by dipping in solution of the compounds; type: in vivo; settings: four dips of one hour every three days, 0.1 g/L
Procedure: Shrimp larvae were subjected two four dips, for one hour every three days with different peptidic GHS analogs at 0.1 g/L. The control group was subjected to the same frequency of dipping with 1 mg/L BSA.

[4] = system: Litopenaeus vanamei post-larvae; experiment: Growth of shrimp post-larvae fed Artemia-bioencapsulated compounds; type: in vivo; settings: Artemia bioencapsulated (10 mh/L, one hour), fed four times a day for one month
Procedure: The peptidic GHS analogs were bioencapsulated in Artemia to be fed to Litopenaeus vanamei post-larvae. For the encapsulation the compounds were added in a 10 mh/L left for an hour, harvested and washed. The animals were fed four times a day for one month while the control group was fed with BSA encapsulated Artemia The effect was measured with an optical micrometer and weighing the animals in a 0.1 mg precision scale.

[5] = differentiated PC12 cells, 72 h incubation, MTT, read-out: IC50 during the NGF deprivation induced neuronal death
[6] = 500 μM hydrogen peroxide, rat cerebellum granular cells, read-out: IC50 during the induced neuronal damage by Hydrogen Peroxide addition to a primary culture of neurons

Sequence | Normalized IGF-I mRNA levels to a non related synthetic peptide control group (IGF-I mRNA) | pIC50 (PC12 cells; [5]) | Lysozyme levels of the treated animals relative to the control group (lysozyme) | Weight Inc. (%), control group growing = 100% [1] | pIC50 [2, 6] | Size Inc. (%), control group growing = 100% [3] | Weight Inc. (%), control group growing = 100% (tilapias) | Size Inc. (%), control group growing = 100% (Litopenaeus vanamei) | Weight Inc. (%), control group growing = 100% (Litopenaeus vanamei) | Size Inc. (%), control group growing = 100% [4] | pIC50 (PC12 cells; 72 h) | pIC50 [2]
HSKGYDLDH [Compound A227, L-amino acid peptide with internal side-chain cycle, SEC; ID NO: 7] | 1.28 | 5.51 | 1.52 | 140.6% | 5.65 | 139.0% | 139.9% | 118.5% | 128.6% | 140.0% | – | –
SSDFKLYWG [Compound A224, L-amino acid peptide with internal side-chain cycle, SEC; ID NO: 4] | 1.41 | 5.63 | 1.37 | 130.0% | 5.49 | 131.2% | 132.7% | 116.0% | 127.0% | 130.0% | – | –
STDFKPFAI [Compound A226, STDFKPFAI] | 1.13 | – | 1.17 | 120.4% | – | 130.4% | 122.4% | 112.2% | 120.1% | 132.0% | 5.31 | 5.45
